Assay results from article PMC11855827, “High-Throughput Screening of Five Compound Libraries for Anthelmintic Activity and Toxicity Leads to the Discovery of Two Flavonoid Compounds” (International Journal of Molecular Sciences, 2025).
Values joined by “and” are separate entries in the source; they are usually repeats but may differ in a detail not shown here. Identical values can stand only once. Where a SMILES comes first, the peptide text is derived from it.

System: C. elegans
Conditions: Table S2, C. elegans SS assay, 110 μM, averages of 4 data points

Compound	Percentage of motility inhibition 0 h [%]	Percentage of motility inhibition 24 h
Strictosamide	0	9%
Clc1ccc(C(Cn2ccnc2)OCc2c(Cl)cccc2Cl)c(Cl)c1.O=[N+]([O-])O (centres unmarked) [Isoconazole (nitrate)]	17	4%
CC1(C)CC[C@]2(C(=O)O)CC[C@]3(C)C(=CC[C@@H]4[C@@]5(C)C[C@H](O)[C@H](O)[C@@](C)(CO)[C@@H]5CC[C@]43C)[C@@H]2C1 [Bayogenin]	2	5%
COC(=O)C1=CO[C@@H](O[C@@H]2O[C@H](CO)[C@@H](O)[C@H](O)[C@H]2O)[C@@H]2[C@@H](C)CC(=O)[C@]12O [Hastatoside]	0	8%
CC(=O)OC[C@H]1O[C@@H](O[C@@H]2[C@@H](O)[C@H](O[C@@H]3[C@H](O)C(C)(C)C[C@H]4C5=CC[C@@H]6[C@@]7(C)CC[C@H](O[C@@H]8O[C@H](C(=O)O)[C@@H](O)[C@H](O)[C@H]8O[C@@H]8O[C@H](CO)[C@H](O)[C@H](O)[C@H]8O[C@@H]8O[C@H](CO)[C@@H](O)[C@H](O)[C@H]8O)[C@](C)(CO)[C@@H]7CC[C@@]6(C)[C@]5(C)CC[C@@]34C)OC[C@@H]2O)[C@H](OC(C)=O)[C@@H](OC(C)=O)[C@@H]1OC(C)=O [Soyasaponin Ab]	21	4%
C[C@H](CC[C@@H](O[C@@H]1O[C@H](CO[C@@H]2O[C@H](CO)[C@@H](O)[C@H](O)[C@H]2O)[C@@H](O)[C@H](O)[C@H]1O[C@@H]1O[C@H](CO)[C@@H](O)[C@H](O)[C@H]1O)C(C)(C)O)[C@H]1CC[C@@]2(C)[C@@H]3CC=C4[C@@H](CC[C@H](O[C@@H]5O[C@H](CO[C@@H]6O[C@H](CO)[C@@H](O)[C@H](O)[C@H]6O)[C@@H](O)[C@H](O)[C@H]5O)C4(C)C)[C@]3(C)C(=O)C[C@]12C [11-oxo-mogroside V]	3	24%
CC1(C)S[C@@H]2[C@H](NC(=O)[C@H](N)c3ccc(O)cc3)C(=O)N2[C@H]1C(=O)O.O.O.O [Amoxicillin (trihydrate)]	27	0%
CC/C=C\CC1=C(C)CCC1=O [cis‐Jasmone]	10	9%
O=C(O)c1cnc(O)cn1 [5‐hydroxypyr azine‐2‐carboxylic acid]	28	1%
Cc1onc(-c2ccccc2Cl)c1C(=O)N[C@@H]1C(=O)N2[C@@H]1SC(C)(C)[C@@H]2C(=O)[O-].O.[Na+] [Cloxacillin (sodium monohydrate)]	14	4%
COc1ccc(-c2cc(=O)c3c(O)cc(O[C@@H]4O[C@H](CO[C@@H]5O[C@@H](C)[C@H](O)[C@@H](O)[C@H]5O)[C@@H](O)[C@H](O)[C@H]4O)cc3o2)cc1 [Linarin]	15	23%
N[C@@H](CCl)C(=O)O [β‐Chloro‐L‐alanine]	27	7%
NCC[C@H](O)C(=O)N[C@@H]1C[C@H](N)[C@@H](O[C@H]2O[C@H](CN)[C@@H](O)[C@H](O)[C@H]2O)[C@H](O)[C@H]1O[C@H]1O[C@H](CO)[C@@H](O)[C@H](N)[C@H]1O.O=S(=O)(O)O.O=S(=O)(O)O [Amikacin (sulfate)]	0	3%
CN1[C@H]2C[C@H](OC(=O)[C@H](CO)c3ccccc3)C[C@@H]1[C@@H](O)C2 (racemic) [Racanisodamine]	–	0% and 6%
C[C@@H]1O[C@@H](O[C@H]2C[C@@H](O)[C@]3(CO)[C@H]4[C@H](O)C[C@]5(C)[C@@H](C6=CC(=O)OC6)CC[C@]5(O)[C@@H]4CC[C@]3(O)C2)[C@H](O)[C@H](O)[C@H]1O.O.O.O.O.O.O.O.O [Ouabain (Octahydrate)]	0	2%
CC(C)(C)C(=O)OCOC(=O)[C@@H]1N2C(=O)[C@@H](N=CN3CCCCCC3)[C@H]2SC1(C)C.Cl [Pivmecillinam (hydrochloride)]	12	0%
CC1(C)CC[C@]2(C(=O)O[C@@H]3O[C@H](CO)[C@@H](O)[C@H](O)[C@H]3O)CC[C@]3(C)C(=CC[C@@H]4[C@@]5(C)C[C@@H](O)[C@H](O[C@@H]6O[C@H](CO)[C@@H](O)[C@H](O)[C@H]6O)[C@@](C)(CO)[C@@H]5CC[C@]43C)[C@@H]2C1 [Lucyoside B]	9	4%
CC(=O)CC[C@@H]1[C@H]2CC(=C(C)C)C(=O)C[C@@]12C [Curcumenone]	3	0%
CCC1=N[C@H]2C[C@@]3(C(=O)N(OC)c4ccccc43)[C@H]3CC1[C@@H]2CO3 [Humantenmine]	8	12%

Compound	Percentage of motility inhibition 0 h [%]	Percentage of motility inhibition 24 h
NC1CCN(c2nc3c(cc2F)c(=O)c(C(=O)O)cn3-c2ccc(F)cc2F)C1 (centres unmarked) [Tosufloxacin (tosylate hydrate)]	44	36%
O=C([O-])CC(O)(CC(=O)[O-])C(=O)[O-].[Na+].[Na+].[Na+] [Citric acid (trisodium)]	8	2%
CC(C)=CCc1cc(C(=O)/C=C/c2ccc(O)cc2)c(O)cc1O [Bavachalcone]	39	18%
C=C1CC[C@]2(C)CC[C@]3(C)[C@H](CC[C@@H]4[C@@]5(C)CC[C@H](O)C(C)(C)[C@@H]5CC[C@]43C)[C@H]2[C@@H]1C [Taraxasterol]	1	2%
Cc1ncc(C[n+]2csc(CCO)c2C)c(N)n1.Cl.[Cl-] [Thiamine (hydrochloride)]	2	13%
CC1(C)CC[C@]2(C(=O)O[C@@H]3O[C@H](CO[C@@H]4O[C@H](CO)[C@@H](O)[C@H](O)[C@H]4O)[C@@H](O)[C@H](O)[C@H]3O)CC[C@]3(C)C(=CC[C@@H]4[C@@]5(C)CC[C@H](O[C@@H]6OC[C@H](O)[C@H](O)[C@H]6O)[C@@](C)(CO)[C@@H]5CC[C@]43C)[C@@H]2C1 [Asperosaponin VI]	0	2%
CO[C@]1(CC[C@@H](C)CO[C@@H]2O[C@H](CO)[C@@H](O)[C@H](O)[C@H]2O)O[C@H]2C[C@H]3[C@@H]4CC=C5C[C@@H](O[C@@H]6O[C@H](CO)[C@@H](O)[C@H](O[C@@H]7O[C@H](CO)[C@@H](O)[C@H](O)[C@H]7O)[C@H]6O[C@@H]6O[C@@H](C)[C@H](O)[C@@H](O)[C@H]6O)CC[C@]5(C)[C@H]4CC[C@]3(C)[C@H]2[C@@H]1C [Methyl protogracillin]	0	15%
NC[C@H]1O[C@H](O[C@H]2[C@H](O)[C@@H](O[C@H]3O[C@H](CO)[C@@H](O)[C@H](N)[C@H]3O)[C@H](N)C[C@@H]2N)[C@H](O)[C@@H](O)[C@@H]1O.O=S(=O)(O)O [Kanamycin (sulfate)]	22	7%
CCC1=C[C@@H]2CN(C1)Cc1c([nH]c3ccccc13)[C@@](C(=O)OC)(c1cc3c(cc1OC)N(C)[C@H]1[C@@](O)(C(=O)OC)[C@H](OC(C)=O)[C@]4(CC)C=CCN5CC[C@]31[C@@H]54)C2.O=C(O)C(O)C(O)C(=O)O.O=C(O)C(O)C(O)C(=O)O [Vinorelbine (ditartrate)]	0	–
Theaflavin‐3'‐gallate	9	0%
Pseudoginsenoside F11	0	22%
C=C[C@]1(C)C[C@@H](OC(=O)CSCCN(CC)CC)[C@]2(C)[C@H](C)CC[C@]3(CCC(=O)[C@H]32)[C@@H](C)[C@@H]1O.O=C(O)/C=C/C(=O)O [Tiamulin (fumarate)]	9	9%
COc1ccc2c(c1O)-c1c(O)c(OC)cc3c1[C@H](C2)[N+](C)(C)CC3.[Cl-] [(+)‐Magnoflorine (chloride)]	0	0%
O=C([O-])c1ccc[n+]([C@@H]2O[C@H](CO)[C@@H](O)[C@H]2O)c1 [Nicotinic acid riboside]	5	0%
Alisol B 23-acetate	0	2%
C=C1CC[C@H]2O[C@]2(C)CC[C@@H]2[C@@H]1CC2(C)C [Caryophyllene oxide]	13	13%
NCC(=O)N1CCC[C@H]1C(=O)O [H‐Gly‐Pro‐OH] (H-Gly-Pro-OH)	8	4%
(-)-Huperzine A	–	7% and 15%
